# Results: PubChem BioAssay (NCI)
#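 Protocol summary: plate cells (96-well), add compound at 5 concentrations, incubate 48 h, interpolate endpoints linearly. GI50 marks 50% less growth. Definition used: TGI = concentration required for complete inhibition of growth.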
# Tested on: MDA-MB-468 breast
# Test: DTP human tumour cell line panel, 48 h
SMILES,GI50 [nM],TGI [nM]
N#Cc1c2ccccc2c2n1-c1ccccc1OC(c1ccccc1)C2=O (configuration not stated),3260,13100
CN(C)C(=S)NN=C(c1ccccn1)c1ccccn1,< 10,24000
COc1cc2c(c(OC)c1OC)-c1ccc(NNC(=S)N(Cc3cccc(C[N+](Cc4cccc(CNC56CC7CC(CC(C7)C5)C6)c4)(Cc4cccc(CNC56CC7CC(CC(C7)C5)C6)c4)Cc4cccc(CN(C(=S)NNc5ccc6c(cc5=O)[C@@H](NC(C)=O)CCc5cc(OC)c(OC)c(OC)c5-6)C56CC7CC(CC(C7)C5)C6)c4)c3)C34CC5CC(CC(C5)C3)C4)c(=O)cc1[C@@H](NC(C)=O)CC2 (some centres not stated),657,1750
CN(C)c1ccc(C(=O)c2ccc(N(C)C)c(N)c2)cc1N,781,4720
N#Cc1cccc(C(=O)c2cnn(-c3ccc(F)cc3)c2N)c1,> 25000,> 25000
COc1cc([C@@H]2c3cc4c(cc3C(Br)[C@H]3COC(=O)[C@H]23)OCO4)cc(OC)c1OC (some centres not stated),175,625
Cc1nc2cncc(C#Cc3cncc(C(=O)Nc4ccc(CN5CCN(C)CC5)c(C(F)(F)F)c4)c3)c2nc1C,949,7340
O=C1C2=C(C(=O)c3c(O)cccc31)C(c1ccco1)c1sc(=O)[nH]c1S2 (configuration not stated),2010,6590
O=C(CCCCCCNC(=O)C(O)(O)C(F)(F)F)Nc1ncc(-c2ccc(Br)cc2)s1,752,5350
CCCCCCCCCCCCCCCC(=O)OCC1OC(n2cnc3c(=S)nc(N)[nH]c32)C(OC(=O)CCCCCCCCCCCCCCC)C1OC(=O)CCCCCCCCCCCCCCC (configuration not stated),1390,> 50000
CCOCC(=O)N[C@H]1CCc2cc(OC)c(OC)c(OC)c2-c2ccc(SC)c(=O)cc21,< 10,> 100000
Nc1nc2c(c3ncccc13)C(c1ccc(Cl)c(Cl)c1)Cc1ncccc1-2 (configuration not stated),3250,11200
C=C1C(=O)O[C@H]2[C@H]1CC/C(CNS(=O)(=O)c1ccc3ccccc3c1)=C\CC[C@@]1(C)O[C@@H]21,363,1620
OCc1cccc(-c2ccc3ncc(-c4nc(NC5CC5)ncc4F)n3c2)c1,250,603
COc1cc(C(=O)/C=C/c2c(-c3ccc(F)cc3)nc3sc(C)cn23)cc(OC)c1OC,2380,> 100000
N#Cc1ccc(/C=N/NC(=O)c2[nH]c3ccc(Br)cc3c2-c2ccccc2)s1,292,10300
COc1ccc(Nc2ccnc(NCCNc3ccnc4cc(Cl)ccc34)n2)cc1,997,3220
Fc1ccc(C2CC(c3cccc(Nc4ccncc4)c3)=NN2c2cc(Cl)cc(Cl)c2)cc1 (configuration not stated),1760,3720
COc1ccc(C2=CC(c3cc(OC)c(OC)c(OC)c3)NC(=O)N2)cc1OC (configuration not stated),3210,15100
CCCCCCOc1ccc(/C=N/NC(N)=S)cc1,6390,32700
Cc1ccccc1S(=O)(=O)N1[C@H](c2ccc(Cl)cc2)C(C(=O)N[C@@H](Cc2ccccc2)C(N)=O)=C[C@@H]1C(C)(C)C,4130,12500
CCOC(=O)c1cc2c(n1Cc1cc(OC)cc(OC)c1)-c1oncc1CCC2,47.4,> 100000
O=C1c2ccccc2-c2nccc3cc(Cl)nc1c23,230,602
O=c1[nH]cnc2c1nnn2C1OC(CO)C(O)C1O (configuration not stated),577,22000
CCCCCCCCCCCCCC[P+](CCCCCC)(CCCCCC)CCCCCC,36.6,175
COc1ccc(C(O)c2cc3c(N)c(C(=O)Nc4cccc(Cl)c4C)sc3nc2C)cc1 (configuration not stated),742,1480
